Here are results for ten compounds from ChEMBL document CHEMBL1201862, “PubChem BioAssay data set” (2004).

SMILES strings stand for the structures.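 Assay format: 96-well plates, 48-hour exposure. GI50 is the concentration that inhibits growth by half.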 Active and inactive are the calls of the source. Rule as the data show it: active = GI50 up to about 1.1 µM and inactive = higher.

Among the test systems are A498; ACHN; EKVX; HCC 2998; HL-60; HOP-62; LOX IMVI; M14; MDA-MB-435; Malme-3M; NCI-H226; NCI-H460; OVCAR-3; OVCAR-5; RPMI-8226; SF-268; SK-MEL-28; SK-MEL-5; SK-OV-3; UACC-257.
Holding throughout (test): growth of human tumour cells (NCI), 48 h

In the case of `Nc1nnc2oc3ccc4ccccc4c3cc1-2`, the GI50 was 24.6 µM (inactive) with A498; 20 µM (inactive) in the assay with ACHN; 33.2 µM (inactive) in the assay on EKVX; 20.3 µM (inactive) with HCC 2998; 21.9 µM (inactive) in the assay with HL-60; > 100 µM (inactive) in the assay with HOP-62. The GI50 was 23.5 µM (inactive) with LOX IMVI; 37.4 µM (inactive) in the assay with M14; 24.3 µM (inactive) with MDA-MB-435; 23 µM (inactive) with Malme-3M; 21.5 µM (inactive) in the assay with NCI-H226; 27 µM (inactive) with NCI-H460. Moreover, the GI50 in the assay with OVCAR-3 is 34.8 µM (inactive); with OVCAR-5, 57.1 µM (inactive); with RPMI-8226, 30.5 µM (inactive); with SF-268, 34 µM (inactive); in the assay on SK-MEL-28, 39.9 µM (inactive); with SK-MEL-5 it was 27.3 µM (inactive). Moreover, the GI50 in the assay with SK-OV-3 was 67.5 µM (inactive); with UACC-257, 28.2 µM (inactive).

`COC12c3ccccc3-c3ccccc3C1[C@H]1C(=O)OC(=O)[C@H]12` (stereo partly specified): the GI50 with A498, in the assay on ACHN, with EKVX, in the assay on HCC 2998, in the assay on HL-60 and in the assay on HOP-62 was > 10 µM (inactive) throughout. The GI50 in the assay on LOX IMVI, in the assay on M14, in the assay on MDA-MB-435, in the assay with Malme-3M, in the assay on NCI-H226 and with NCI-H460 was > 10 µM (inactive) each time. In addition, the GI50 in the assay with OVCAR-3, in the assay with OVCAR-5, in the assay with RPMI-8226, in the assay with SF-268, in the assay on SK-MEL-28 and with SK-MEL-5 was > 10 µM (inactive) throughout. For the same compound, the GI50 in the assay on SK-OV-3 and in the assay on UACC-257 was > 10 µM (inactive) in each case.

As for `Cc1nc2c(C)c3c([nH]c4ccc(Cl)cc43)c(C)c2c(O)c1C`, the GI50 is 15.3 µM (inactive) with A498; 2.75 µM (inactive) with ACHN; 22 µM (inactive) in the assay on EKVX; 6.46 µM (inactive) with HCC 2998; 2.24 µM (inactive) in the assay on HL-60; 4.23 µM (inactive) in the assay with HOP-62. For the same compound, the GI50 with LOX IMVI is 4.06 µM (inactive); in the assay with M14 it was 10.9 µM (inactive); in the assay with MDA-MB-435, 6.34 µM (inactive); in the assay with Malme-3M it was 8.43 µM (inactive); with NCI-H226, 4.82 µM (inactive); in the assay with NCI-H460 it was 2.07 µM (inactive). Moreover, the GI50 with OVCAR-3 was 7.94 µM (inactive); in the assay on OVCAR-5, 6.76 µM (inactive); with RPMI-8226 it was 3.3 µM (inactive); in the assay on SF-268 it was 16.1 µM (inactive); in the assay with SK-MEL-28, 10.8 µM (inactive); with SK-MEL-5, 11.8 µM (inactive). The GI50 was 16.5 µM (inactive) in the assay on SK-OV-3 and 13.9 µM (inactive) in the assay with UACC-257.

`CC(C)=CCC[C@@H](C)C1=C(O)C(=O)C(C)=C(N)C1=O`: the GI50 is 39.8 µM (inactive) in the assay on A498; 18 µM (inactive) with ACHN; 36.1 µM (inactive) in the assay on EKVX; 59.6 µM (inactive) with HCC 2998; 3.43 µM (inactive) with HL-60; 23.2 µM (inactive) with HOP-62. Further, the GI50 in the assay on LOX IMVI is 15.7 µM (inactive); with M14, 20.5 µM (inactive); in the assay on MDA-MB-435 it was 41 µM (inactive); in the assay on Malme-3M, 14.1 µM (inactive); in the assay on NCI-H226 it was 20.8 µM (inactive); in the assay on NCI-H460 it was 10.2 µM (inactive). Also, the GI50 in the assay with OVCAR-3 was 27.9 µM (inactive); with OVCAR-5, 81.5 µM (inactive); in the assay on RPMI-8226, 27.3 µM (inactive); with SF-268, 21.5 µM (inactive); in the assay on SK-MEL-28, 34.8 µM (inactive); in the assay with SK-MEL-5, 20.4 µM (inactive). Also, the GI50 is 27.3 µM (inactive) in the assay on SK-OV-3 and 38.5 µM (inactive) with UACC-257.

As to `COc1cccc(C[C@H]2COC(=O)[C@]2(O)Cc2cccc(OC)c2)c1`, the GI50 is > 100 µM (inactive) in the assay on A498; > 100 µM (inactive) in the assay on ACHN; 26.5 µM (inactive) with EKVX; 70.8 µM (inactive) with HCC 2998; 72.6 µM (inactive) in the assay on HL-60; > 100 µM (inactive) in the assay with HOP-62. The GI50 is > 100 µM (inactive) in the assay on LOX IMVI; > 100 µM (inactive) with M14; > 100 µM (inactive) in the assay with MDA-MB-435; 60.5 µM (inactive) in the assay on Malme-3M; > 100 µM (inactive) with NCI-H226; 48.2 µM (inactive) with NCI-H460. The GI50 in the assay on OVCAR-3 was 97.5 µM (inactive); in the assay on OVCAR-5 it was > 100 µM (inactive); in the assay with RPMI-8226, 93.3 µM (inactive); with SF-268, < 0.01 µM (active); with SK-MEL-28 it was > 100 µM (inactive); with SK-MEL-5, 50.9 µM (inactive). The GI50 with SK-OV-3 and in the assay on UACC-257 was > 100 µM (inactive) in each case.

Take `Cc1ccc(C2SCC(=O)N2c2ccc(-n3c(-c4ccccc4)nc4ccccc4c3=O)cc2)cc1` (stereo unspecified): the GI50 is 26.1 µM (inactive) in the assay on A498; 16.6 µM (inactive) in the assay with ACHN; 17.5 µM (inactive) in the assay with HCC 2998; 19.5 µM (inactive) in the assay on HL-60; 12.9 µM (inactive) in the assay with HOP-62; 9.98 µM (inactive) with LOX IMVI. In addition, the GI50 is 23.3 µM (inactive) with M14; 21.1 µM (inactive) in the assay with MDA-MB-435; 22 µM (inactive) in the assay with Malme-3M; 18.5 µM (inactive) in the assay with NCI-H226; 9.42 µM (inactive) in the assay on NCI-H460; 13.2 µM (inactive) in the assay with OVCAR-3. Further, the GI50 with OVCAR-5 is 42.4 µM (inactive); with RPMI-8226, 13.7 µM (inactive); with SF-268 it was 24.2 µM (inactive); in the assay with SK-MEL-28, 21 µM (inactive); in the assay on SK-MEL-5 it was 11.6 µM (inactive); in the assay with SK-OV-3, 4.95 µM (inactive). The GI50 in the assay with UACC-257 was 24.9 µM (inactive).

`CCOC(=O)C1(C#N)OC(=O)c2cnccc21` (stereo unspecified): the GI50 in the assay on A498 was > 100 µM (inactive); in the assay with ACHN, 58.6 µM (inactive); in the assay on EKVX, > 100 µM (inactive); with HCC 2998, > 100 µM (inactive); with HL-60, > 100 µM (inactive); in the assay on LOX IMVI, > 100 µM (inactive). Besides, the GI50 with M14, with MDA-MB-435, in the assay on Malme-3M, in the assay on NCI-H226, in the assay on NCI-H460 and in the assay on OVCAR-3 was > 100 µM (inactive) throughout. Besides, the GI50 in the assay with OVCAR-5, with RPMI-8226, in the assay on SF-268, in the assay on SK-MEL-28, in the assay with SK-OV-3 and with UACC-257 was > 100 µM (inactive) in each case.

On to `CC(=O)OCC1OC(n2c3c(cc(C#N)c2=S)CCC3)C(OC(C)=O)C(OC(C)=O)C1OC(C)=O` (stereo unspecified), for which the GI50 in the assay on A498, with ACHN, with HCC 2998, with HL-60, in the assay with HOP-62 and with LOX IMVI was > 100 µM (inactive) in each case. Moreover, the GI50 in the assay with M14, in the assay on MDA-MB-435, with Malme-3M, with NCI-H226, in the assay with NCI-H460 and with OVCAR-5 was > 100 µM (inactive) each time. For the same compound, the GI50 with RPMI-8226, in the assay with SF-268, in the assay on SK-MEL-28, in the assay with SK-MEL-5 and in the assay with UACC-257 was > 100 µM (inactive) in each case.

Take `CC(=O)N(CCc1ccccc1)C(C)(C#N)c1ccccc1` (stereo unspecified): the GI50 with A498, in the assay on ACHN, in the assay on EKVX, with HCC 2998, with HL-60 and with HOP-62 was > 100 µM (inactive) in each case. In addition, the GI50 in the assay on LOX IMVI, in the assay with M14, in the assay with MDA-MB-435, in the assay on Malme-3M, with NCI-H226 and in the assay with OVCAR-3 was > 100 µM (inactive) throughout. The GI50 in the assay on OVCAR-5, with RPMI-8226, in the assay with SF-268, in the assay on SK-MEL-28, with SK-MEL-5 and with SK-OV-3 was > 100 µM (inactive) in each case. For the same compound, the GI50 in the assay with UACC-257 is > 100 µM (inactive).

Consider `Cc1sccc1C(=S)Nc1ccc(Cl)c(/C=N/OC(C)(C)C)c1`, for which the GI50 in the assay with A498 is 23.8 µM (inactive); in the assay with EKVX it was 15.8 µM (inactive); in the assay on HCC 2998 it was 16.4 µM (inactive); in the assay on HL-60, 16.9 µM (inactive); in the assay on HOP-62 it was 16 µM (inactive); in the assay with LOX IMVI, 26.6 µM (inactive). For the same compound, the GI50 is 17.9 µM (inactive) in the assay with M14; 21.7 µM (inactive) in the assay with MDA-MB-435; 15.1 µM (inactive) in the assay on Malme-3M; 13.9 µM (inactive) in the assay on NCI-H226; 13.9 µM (inactive) in the assay with OVCAR-3; 19.3 µM (inactive) with OVCAR-5. The GI50 in the assay on RPMI-8226 is 7.31 µM (inactive); in the assay with SF-268, 18.3 µM (inactive); in the assay on SK-MEL-28, 26.6 µM (inactive); in the assay with SK-MEL-5, 13.2 µM (inactive); in the assay with SK-OV-3, 21.9 µM (inactive); in the assay with UACC-257 it was 17 µM (inactive).
